# Laboratory results from PubChem BioAssay AID651818 (Broad Institute, 2012).
# Results filed as inconclusive are left out.
# Tested on: intracellular Trypanosoma cruzi in host cells, plate reader
# Assay: intracellular Trypanosoma cruzi inhibitors in host cells – cell-based, plate reader, cherry-pick samples, set 3, dose response (AID 651818)
smiles,measurement,value
C[C@@H]1CN([C@@H](C)CO)C(=O)c2cccc(NC(=O)c3ccncc3)c2O[C@H]1CN(C)Cc1ccc(Oc2ccccc2)cc1,AC50,< 75 nM
